Test results from ChEMBL document CHEMBL3045398, “Fungicidal activities of cyflufenamid against various plant-pathogenic fungi” (J Pestic Sci, 2006).
Active and inactive are the calls of the source. The rule behind the calls is not given here.

Legend:
Pestalotia longiseta = test: Fungicidal activity against Pestalotia longiseta assessed as inhibition of mycelial growth measured after 3 to 20 days by agar dilution method; format: functional, organism-based, Pestalotiopsis longiseta
Colletotrichum lagenaria = test: Fungicidal activity against Colletotrichum lagenaria assessed as inhibition of mycelial growth measured after 3 to 20 days by agar dilution method; format: functional, organism-based
Verticillium dahliae = test: Fungicidal activity against Verticillium dahliae assessed as inhibition of mycelial growth measured after 3 to 20 days by agar dilution method; format: functional, organism-based
Botrytis cinerea [1] = test: Fungicidal activity against Botryotinia fuckeliana assessed as inhibition of mycelial growth measured after 3 to 20 days by agar dilution method; format: functional, organism-based
Cytospora ceratosperma = test: Fungicidal activity against Valsa ceratosperma assessed as inhibition of mycelial growth measured after 3 to 20 days by agar dilution method; format: functional, organism-based
Oculimacula yallundae = test: Fungicidal activity against Oculimacula yallundae assessed as inhibition of mycelial growth measured after 3 to 20 days by agar dilution method; format: functional, organism-based
[2] = tested on: Blumeria graminis f. sp. tritici; test: Fungicidal activity against Blumeria graminis f. sp. tritici on wheat (Triticum aestivum, cv. Chihoku) assessed as powdery mildew disease control at 50 ppm measured after 5 to 10 days; format: functional
[3] = tested on: Blumeria graminis f. sp. tritici; test: Fungicidal activity against Blumeria graminis f. sp. tritici on wheat leaves assessed as rate of appressorium formation measured at 12.5 ppm after 12 hr (reference value: 22.3 +/- 10.2%); format: functional
Microdochium nivale = test: Fungicidal activity against Microdochium nivale assessed as inhibition of mycelial growth measured after 3 to 20 days by agar dilution method; format: functional, organism-based
Podosphaera pannosa = test: Fungicidal activity against Podosphaera pannosa in rose assessed as powdery mildew disease control measured after 7 to 10 days by pot test; format: functional
Phytophthora infestans = test: Fungicidal activity against Phytophthora infestans on tomato (Lycopersicon esculentum, cv. Regina) assessed as late blight disease control at 200 ppm measured after 5 to 10 days; format: functional
[4] = tested on: Colletotrichum gloeosporioides; test: Fungicidal activity against Glomerella cingulata assessed as inhibition of mycelial growth measured after 3 to 20 days by agar dilution method; format: functional, organism-based
Monilinia fructicola [5] = test: Fungicidal activity against Monilinia fructicola assessed as number and shape of mitochondria measured by Transmission electron microscopy relative to untreated control; format: functional, organism-based
[6] = tested on: Blumeria graminis f. sp. tritici; test: Fungicidal activity against Blumeria graminis f. sp. tritici on wheat (Triticum aestivum, cv. Chihoku) assessed as powdery mildew disease control at 12.5 ppm measured after 5 to 10 days; format: functional
[7] = tested on: Blumeria graminis f. sp. tritici; test: Fungicidal activity against Blumeria graminis f. sp. tritici on wheat leaves assessed as rate of spore germination measured at 12.5 ppm after 12 hr (reference value: 67.4 +/- 8.6%); format: functional
Rosellinia necatrix = test: Fungicidal activity against Rosellinia necatrix assessed as inhibition of mycelial growth measured after 3 to 20 days by agar dilution method; format: functional, organism-based
Botrytis cinerea [8] = test: Fungicidal activity against Botryotinia fuckeliana on kidney bean (Phaseolus vulgaris, cv. Nagauzura) assessed as grey mold disease control at 200 ppm measured after 5 to 10 days; format: functional
Leveillula taurica = test: Fungicidal activity against Leveillula taurica in sweet pepper assessed as powdery mildew disease control measured after 7 to 10 days by pot test; format: functional; conditions: Phyllactinia taurica
[9] = tested on: Blumeria graminis f. sp. tritici; test: Fungicidal activity against Blumeria graminis f. sp. tritici on wheat (Triticum aestivum, cv. Chihoku) assessed as powdery mildew disease control at 0.8 ppm measured after 5 to 10 days; format: functional
[10] = tested on: Blumeria graminis f. sp. tritici; test: Fungicidal activity against Blumeria graminis f. sp. tritici on wheat (Triticum aestivum, cv. Chihoku) assessed as powdery mildew disease control at 0.05 ppm measured after 5 to 10 days; format: functional
Bipolaris oryzae = test: Fungicidal activity against Bipolaris oryzae assessed as inhibition of mycelial growth measured after 3 to 20 days by agar dilution method; format: functional, organism-based
Elsinoe ampelina = test: Fungicidal activity against Elsinoe ampelina assessed as inhibition of mycelial growth measured after 3 to 20 days by agar dilution method; format: functional, organism-based
[11] = tested on: Blumeria graminis f. sp. tritici; test: Fungicidal activity against Blumeria graminis f. sp. tritici on wheat leaves assessed as rate of appressorium formation measured at 0.8 ppm after 168 hr; format: functional
Cercospora = test: Fungicidal activity against Cercospora theae assessed as inhibition of mycelial growth measured after 3 to 20 days by agar dilution method; format: functional, organism-based
[12] = tested on: Blumeria graminis f. sp. tritici; test: Fungicidal activity against Blumeria graminis f. sp. tritici on wheat leaves assessed as rate of appressorium formation measured at 3.1 ppm after 168 hr; format: functional
Botrytis squamosa = test: Fungicidal activity against Botryotinia squamosa assessed as inhibition of mycelial growth measured after 3 to 20 days by agar dilution method; format: functional, organism-based
[13] = tested on: Blumeria graminis f. sp. tritici; test: Fungicidal activity against Blumeria graminis f. sp. tritici on wheat leaves assessed as colony formation measured at 0.8 ppm; format: functional
Fusarium oxysporum = test: Fungicidal activity against Fusarium oxysporum assessed as inhibition of mycelial growth measured after 3 to 20 days by agar dilution method; format: functional, organism-based
Parastagonospora nodorum = test: Fungicidal activity against Phaeosphaeria nodorum assessed as inhibition of mycelial growth measured after 3 to 20 days by agar dilution method; format: functional, organism-based
[14] = tested on: Blumeria graminis f. sp. tritici; test: Fungicidal activity against Blumeria graminis f. sp. tritici on wheat leaves assessed as rate of appressorium formation measured at 12.5 ppm after 3 hr (reference value: 1.7 +/- 1.4%); format: functional
Venturia inaequalis [15] = test: Fungicidal activity against Venturia inaequalis on apple (Malus pumila var. domestica, cv. Rall's Janett) assessed as scab control at 200 ppm measured after 5 to 10 days; format: functional
[16] = tested on: Blumeria graminis f. sp. tritici; test: Fungicidal activity against Blumeria graminis f. sp. tritici on wheat (Triticum aestivum, cv. Chihoku) assessed as powdery mildew disease control at 0.01 ppm measured after 5 to 10 days; format: functional
Monilinia fructicola [17] = test: Fungicidal activity against Monilinia fructicola assessed as inhibition of mycelial growth measured after 3 to 20 days by agar dilution method; format: functional, organism-based
[18] = tested on: Blumeria graminis f. sp. tritici; test: Fungicidal activity against Blumeria graminis f. sp. tritici on wheat leaves assessed as spore formation measured at 0.2 ppm; format: functional
Erysiphe necator = test: Fungicidal activity against Erysiphe necator in grape assessed as powdery mildew disease control measured after 7 to 10 days by pot test; format: functional
[19] = tested on: Blumeria graminis f. sp. tritici; test: Fungicidal activity against Blumeria graminis f. sp. tritici on wheat leaves assessed as colony formation measured at 0.2 ppm; format: functional
Rhizoctonia solani = test: Fungicidal activity against Rhizoctonia solani assessed as inhibition of mycelial growth measured after 3 to 20 days by agar dilution method; format: functional, organism-based
[20] = tested on: Blumeria graminis f. sp. tritici; test: Fungicidal activity against Blumeria graminis f. sp. tritici on wheat leaves assessed as rate of appressorium formation measured at 0.2 ppm after 76 hr; format: functional
Venturia inaequalis [21] = test: Fungicidal activity against Venturia inaequalis assessed as inhibition of mycelial growth measured after 3 to 20 days by agar dilution method; format: functional, organism-based
[22] = tested on: Blumeria graminis f. sp. tritici; test: Fungicidal activity against Blumeria graminis f. sp. tritici on wheat leaves assessed as rate of spore germination measured at 12.5 ppm after 3 hr (reference value: 22.5 +/- 7.6%); format: functional
Monilinia fructicola [23] = test: Fungicidal activity against Monilinia fructicola assessed as vacuolated hyphae measured by Transmission electron microscopy; format: functional, organism-based
[24] = tested on: Blumeria graminis f. sp. tritici; test: Fungicidal activity against Blumeria graminis f. sp. tritici on wheat leaves assessed as rate of appressorium formation measured at 0.8 ppm after 76 hr; format: functional

O=C(Cc1ccccc1)N/C(=N\OCC1CC1)c1c(C(F)(F)F)ccc(F)c1F [CYFLUFENAMID]
EC50 (Pestalotia longiseta): > 100 ppm
EC50 (Colletotrichum lagenaria): > 100 ppm
EC50 (Verticillium dahliae): > 100 ppm
EC50 (Botrytis cinerea [1]): > 100 ppm
EC50 (Cytospora ceratosperma): 8 ppm
EC50 (Oculimacula yallundae): > 100 ppm
Efficacy [2]: 100%
Activity [3]: 28.1%
EC50 (Microdochium nivale): 0.3 ppm
MIC (Podosphaera pannosa): < 1.6 µg/mL
Efficacy (Phytophthora infestans): 0%
EC50 [4]: > 100 ppm
Activity (Monilinia fructicola [5]): inactive
Efficacy [6]: 100%
Activity [7]: 60.7%
EC50 (Rosellinia necatrix): 0.7 ppm
Efficacy (Botrytis cinerea [8]): 0%
MIC (Leveillula taurica): < 0.8 µg/mL
Efficacy [9]: 100%
Efficacy [10]: 30%
EC50 (Bipolaris oryzae): > 100 ppm
EC50 (Elsinoe ampelina): 5 ppm
inhibition at 0.8 ppm [11]: 99.4%
EC50 (Cercospora): > 100 ppm
inhibition at 3.1 ppm [12]: 99.9%
EC50 (Botrytis squamosa): > 100 ppm
inhibition at 0.8 ppm [13]: 96.9%
EC50 (Fusarium oxysporum): > 100 ppm
EC50 (Parastagonospora nodorum): > 100 ppm
Activity [14]: 0.3%
Efficacy (Venturia inaequalis [15]): 0%
Efficacy [16]: 6%
EC50 (Monilinia fructicola [17]): 0.01 ppm
inhibition at 0.2 ppm [18]: 97%
MIC (Erysiphe necator): < 1.6 µg/mL
inhibition at 0.2 ppm [19]: 81.2%
EC50 (Rhizoctonia solani): > 100 ppm
inhibition at 0.2 ppm [20]: 77.6%
EC50 (Venturia inaequalis [21]): > 100 ppm
Activity [22]: 19.8%
Activity (Monilinia fructicola [23]): Active
inhibition at 0.8 ppm [24]: 96.4%
